Experimental data reported in patent publication US8791132B2, “Compounds and methods for treatment of hypertension” (Medivation Technologies, Inc., priority 2011, dated 2014).
Read-outs that look alike come from different tables or passages of the source.

Key:
[1] = molecular target: T1, human recombinant adrenergic α2B receptor (Homo sapiens, UniProt P18089); experiment: Radioligand binding, adrenergic α2B ([3H]Rauwolscine); settings: [3H]Rauwolscine; for Percentage inhibition of ligand binding, Adrenergic α2B: 0.03 µM
T1 construct: expressed in transfected cells; host or cells: CHO-K1
T1 sequence (P18089 1-450): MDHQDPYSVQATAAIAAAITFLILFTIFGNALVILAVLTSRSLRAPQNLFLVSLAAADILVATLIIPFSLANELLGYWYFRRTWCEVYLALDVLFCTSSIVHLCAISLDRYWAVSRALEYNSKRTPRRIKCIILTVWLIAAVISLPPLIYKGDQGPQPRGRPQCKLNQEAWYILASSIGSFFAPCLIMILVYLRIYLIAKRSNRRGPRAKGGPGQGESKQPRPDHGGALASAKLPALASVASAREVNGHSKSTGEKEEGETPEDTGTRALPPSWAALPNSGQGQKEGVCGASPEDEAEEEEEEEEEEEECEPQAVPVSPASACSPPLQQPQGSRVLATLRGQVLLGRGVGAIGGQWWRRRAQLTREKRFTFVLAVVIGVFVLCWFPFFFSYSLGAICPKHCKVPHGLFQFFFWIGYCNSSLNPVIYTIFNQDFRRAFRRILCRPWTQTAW
In short: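 Assay used CHO-K1-expressed human α2B receptor in Tris-HCl pH 7.4 buffer with MgCl2, EDTA and BSA; 60 min incubation at 25 °C.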

[2] = molecular target: T2, human recombinant adrenergic α2A receptor (Homo sapiens, UniProt P08913); experiment: Radioligand binding, adrenergic α2A ([3H]MK-912); settings: [3H]MK-912; for Percentage inhibition of ligand binding, Adrenergic α2A: 0.1 µM
T2 construct: expressed in transfected cells; host or cells: insect Sf9 cells
T2 sequence (P08913 1-465): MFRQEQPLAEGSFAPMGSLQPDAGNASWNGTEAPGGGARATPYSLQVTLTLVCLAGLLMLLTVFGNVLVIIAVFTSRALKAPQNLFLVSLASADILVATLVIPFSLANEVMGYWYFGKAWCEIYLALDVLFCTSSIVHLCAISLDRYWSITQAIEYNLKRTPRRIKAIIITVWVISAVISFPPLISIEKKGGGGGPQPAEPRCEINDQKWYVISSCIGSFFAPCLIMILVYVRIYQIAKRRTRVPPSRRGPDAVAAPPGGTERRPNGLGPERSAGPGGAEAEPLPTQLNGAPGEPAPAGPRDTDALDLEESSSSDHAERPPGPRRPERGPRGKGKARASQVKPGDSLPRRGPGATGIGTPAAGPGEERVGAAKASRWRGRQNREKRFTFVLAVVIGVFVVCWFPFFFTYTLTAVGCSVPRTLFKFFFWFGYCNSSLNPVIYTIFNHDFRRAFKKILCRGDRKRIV
In short: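 In 50 mM Tris-HCl (pH 7.4) containing 12.5 mM MgCl2 and 2 mM EDTA, Sf9-expressed receptor was exposed to test compound plus 1 nM [3H]MK-912 at 25 °C for 60 min. Specific binding, corrected using 10 μM WB-4101, was quantified by filtration and counting and expressed as percent inhibition.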

[3] = molecular target: T3, rat adrenergic α1B receptor (Rattus norvegicus, UniProt P15823); experiment: Radioligand binding, adrenergic α1B ([3H]Prazosin); settings: [3H]Prazosin; for Percentage inhibition of ligand binding, Adrenergic α1B: 0.1 µM
T3 construct: rat adrenergic α1B receptor obtained from Wistar Rat liver; from tissue; host or cells: Wistar rat liver
T3 sequence (P15823 1-515): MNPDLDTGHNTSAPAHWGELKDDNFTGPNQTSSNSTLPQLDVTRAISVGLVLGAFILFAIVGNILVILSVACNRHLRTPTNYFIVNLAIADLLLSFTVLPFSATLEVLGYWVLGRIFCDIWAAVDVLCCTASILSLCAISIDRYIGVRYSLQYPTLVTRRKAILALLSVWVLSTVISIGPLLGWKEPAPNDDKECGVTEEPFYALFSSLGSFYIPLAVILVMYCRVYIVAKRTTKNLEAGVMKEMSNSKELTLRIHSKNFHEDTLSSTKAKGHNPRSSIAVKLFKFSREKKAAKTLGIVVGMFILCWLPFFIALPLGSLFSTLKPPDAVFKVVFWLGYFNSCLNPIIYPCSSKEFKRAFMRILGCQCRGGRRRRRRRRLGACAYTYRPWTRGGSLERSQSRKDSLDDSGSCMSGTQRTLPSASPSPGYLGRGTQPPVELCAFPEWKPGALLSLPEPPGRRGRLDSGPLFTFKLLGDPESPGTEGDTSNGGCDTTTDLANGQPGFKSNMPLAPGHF
In short: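 Filter binding with Wistar rat liver α1B preparation: test compound plus 0.25 nM [3H]prazosin, 1 h at 25° C in modified Tris-HCl buffer pH 7.4.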

[4] = compound at 0.03 μM, repeat assays, each datapoint shown
[5] = compound at 0.1 μM, repeat assays, each datapoint shown
[6] = compound at 0.1 μM, repeat assays, each datapoint shown, read-out: Percentage inhibition of ligand binding, Adrenergic α2A
[7] = compound at 0.03 μM, repeat assays, each datapoint shown, read-out: Percentage inhibition of ligand binding, Adrenergic α2B
[8] = compound at 0.1 μM, repeat assays, each datapoint shown, read-out: Percentage inhibition of ligand binding, Adrenergic α1B
[9] = read-out: Percentage inhibition of ligand binding, Adrenergic α2A (0.1 μM), compound at 0.1 μM, repeat datapoints each shown
[10] = read-out: Percentage inhibition of ligand binding, Adrenergic α1B (0.1 μM), compound at 0.1 μM, repeat datapoints each shown

Structure (SMILES)	inhibition at 0.1 µM [2, 6]	inhibition at 0.03 µM [1, 7]	inhibition at 0.1 µM [3, 8]	other results
Cc1ccc2c(c1)c1c(n2CC(O)c2cccnc2)CN(C)CC1 (stereo not drawn) [compound 43, 2-(2,6-dimethyl-1,2,3,4-tetrahydro-β-carbolin-9-yl)-1-pyridin-3-yl-ethanol]	–	–	–	Percentage inhibition of ligand binding, Adrenergic α2B [1, 4]: 24%; Percentage inhibition of ligand binding, Adrenergic α2A [2, 5]: −1%; Percentage inhibition of ligand binding, Adrenergic α1B [3, 5]: 21%
COc1cccc2c3c(n(CC(O)c4ccncc4)c12)CCN(C)C3 (stereo not drawn) [compound 44, 2-(6-methoxy-2-methyl-3,4-dihydro-1H-pyrido[4,3-b]indol-5(2H)-yl)-1-(pyridin-4-yl)ethanol]	–	–	–	Percentage inhibition of ligand binding, Adrenergic α2B [1, 4]: 56%; Percentage inhibition of ligand binding, Adrenergic α2A [2, 5]: −1%; Percentage inhibition of ligand binding, Adrenergic α1B [3, 5]: −3%
COc1ccc(C(O)Cn2c3c(c4cc(C)ccc42)CN(C)CC3)cn1 (stereo not drawn) [compound 51, 2-(2,8-dimethyl-1,2,3,4-tetrahydro-pyrido[4,3-b]indol-5-yl)-1-(6-methoxy-pyridin-3-yl)-ethanol]	–	–	–	Percentage inhibition of ligand binding, Adrenergic α2B [1, 4]: 82%; Percentage inhibition of ligand binding, Adrenergic α2A [2, 5]: 20%; Percentage inhibition of ligand binding, Adrenergic α1B [3, 5]: 43%
Cc1cnc2c(c1)c1c(n2CC(O)c2ccncc2)CCN(C)C1 (stereo not drawn) [compound 55, 2-(3,6-dimethyl-5,6,7,8-tetrahydro-1,6,9-triaza-fluoren-9-yl)-1-pyridin-4-yl-ethanol]	13%	–	–	Percentage inhibition of ligand binding, Adrenergic α2B [1, 4]: 63%; Percentage inhibition of ligand binding, Adrenergic α1B [3, 5]: 37%
Cc1cnc2c(c1)c1c(n2CC(O)c2ccncc2)CCNC1 (stereo not drawn) [compound 58, 2-(3-methyl-5,6,7,8-tetrahydro-1,6,9-triaza-fluoren-9-yl)-1-pyridin-4-yl-ethanol]	–	–	–	Percentage inhibition of ligand binding, Adrenergic α2B [1, 4]: 26%; Percentage inhibition of ligand binding, Adrenergic α2A [2, 5]: −1%; Percentage inhibition of ligand binding, Adrenergic α1B [3, 5]: 21%
Cc1ccc2c(c1)c1c(n2CC(O)c2cccnc2)CCN(C)C1 (stereo not drawn) [compound 62]	1%	76%	16%	–
COc1ccc(C(C)(O)Cn2c3c(c4cc(C)ccc42)CN(C)CC3)cn1 (stereo not drawn) [compound 64, 1-(2,8-dimethyl-1,2,3,4-tetrahydro-pyrido[4,3-b]indol-5-yl)-2-(6-methoxy-pyridin-3-yl)-propan-2-ol]	12%	62%	25%	–
CN1CCc2c(c3ccc(C(F)(F)F)cc3n2CC(O)c2ccncc2)C1 (stereo not drawn) [compound 65, 2-(2-methyl-7-(trifluoromethyl)-3,4-dihydro-1H-pyrido[4,3-b]indol-5(2H)-yl)-1-(pyridin-4-yl)ethanol]	-3%	64%	-13%	–
COc1ccc(C(O)Cn2c3c(c4cc(C)ccc42)CN(C)CC3)cc1OC (stereo not drawn) [compound 66, 1-(3,4-dimethoxy-phenyl)-2-(2,8-dimethyl-1,2,3,4-tetrahydro-pyrido[4,3-b]indol-5-yl)-ethanol]	15%	69%	48%	–
Cc1ccc2c(c1)c1c(n2CC(O)c2ccc(C(=O)O)cc2)CCN(C)C1 (stereo not drawn) [compound 67, 4-[2-(2,8-dimethyl-1,2,3,4-tetrahydro-pyrido[4,3-b]indol-5-yl)-1-hydroxy-ethyl]-benzoic acid]	-7%	17%	12%	–
Cc1ccc2c(c1)c1c(n2CC(=O)c2cc[n+]([O-])cc2)CCN(C)C1 [compound 68]	1%	4%	2%	–
CC(O)c1ccc2c(c1)c1c(n2CC(O)c2ccncc2)CCN(C)C1 (stereo not drawn) [compound 70]	10%	26%	8%	–
Cc1ccc2c(c1)c1c(n2CC(O)c2ccncc2)CC2CCC1N2C (stereo not drawn) [compound 73]	15%	61%	17%	–
Cc1ccc2c(c1)c1c(n2CCc2cncc(F)c2)CCN(C)C1 [compound 117, 5-[2-(5-fluoro-pyridin-3-yl)-ethyl]-2,8-dimethyl-2,3,4,5-tetrahydro-1H-pyrido[4,3-b]indole]	–	–	–	inhibition at 0.1 µM ([1]; read-out: Percentage inhibition of ligand binding, Adrenergic α2B (0.1 μM), compound at 0.1 μM, repeat datapoints each shown): 68%; inhibition at 0.1 µM [2, 9]: 18%; inhibition at 0.1 µM [3, 10]: 59%
C=C(Cn1c2c(c3cc(C)ccc31)CN(C)CC2)c1cccnc1 [compound 132]	–	–	–	inhibition at 0.03 µM ([1]; read-out: Percentage inhibition of ligand binding, Adrenergic α2B (0.03 μM), compound at 0.03 μM, repeat datapoints each shown): 91%; inhibition at 0.1 µM [2, 9]: 19%; inhibition at 0.1 µM [3, 10]: 28%

Further lines, with some results ahead:

inhibition at 0.1 µM [2, 6]	inhibition at 0.03 µM [1, 7]	inhibition at 0.1 µM [3, 8]	Structure (SMILES)	other results
11%	9%	11%	Cc1ccc2c(c1)c1c(n2CC(O)c2ccncc2)C(C)(C)CN(C)C1 (stereo not drawn) [compound 71, 1-pyridin-4-yl-2-(2,4,4,8-tetramethyl-1,2,3,4-tetrahydro-pyrido[4,3-b]indol-5-yl)-ethanol]	–
-2%	12%	6%	CCOC(=O)N1CCc2c(c3cc(C)ccc3n2CC(O)c2ccncc2)C1 (stereo not drawn) [compound 72, ethyl 3,4-dihydro-5-(2-hydroxy-2-(pyridin-4-yl)ethyl)-8-methyl-1H-pyrido[4,3-b]indole-2(5H)-carboxylate]	–
19%	77%	34%	Cc1ccc2c(c1)c1c(n2/C=C/c2ccncc2)CCNC1 [compound 79, 8-methyl-5-(2-(pyridin-4-yl)vinyl)-2,3,4,5-tetrahydro-1H-pyrido[4,3-b]indole]	–
12%	81%	49%	C/C(=C/n1c2c(c3cc(C)ccc31)CN(C)CC2)c1cn[nH]c1 [compound 80]	–
5%	79%	16%	Cc1cccc2c3c(n(CC(O)c4ccncc4)c12)CCN(C)C3 (stereo not drawn) [compound 82, 2-(2,6-dimethyl-1,2,3,4-tetrahydro-pyrido[4,3-b]indol-5-yl)-1-pyridin-4-yl-ethanol]	–
